Holding throughout (assay): biochemical
Design in all cases: KINOMEscan active-site-directed competition binding panel, 468 kinases, percent of DMSO control at 1 uM
What all share (details): KINOMEscan binding, percent of DMSO control; read-out: Ctrl%

The target in assay [1] is KIT(V559D,V654A) (Homo sapiens, UniProt P10721, V559D/V654A).
Assay [2] deals with PRKX (Homo sapiens, UniProt P51817).
The target of assay [3] is CASK (Homo sapiens, UniProt O14936).
In assay [4] the target is FGR (Homo sapiens, UniProt P09769).
The target in assay [5] is CSNK1A1L (Homo sapiens, UniProt Q8N752).
CSNK1A1L, sequence (Q8N752 whole entry): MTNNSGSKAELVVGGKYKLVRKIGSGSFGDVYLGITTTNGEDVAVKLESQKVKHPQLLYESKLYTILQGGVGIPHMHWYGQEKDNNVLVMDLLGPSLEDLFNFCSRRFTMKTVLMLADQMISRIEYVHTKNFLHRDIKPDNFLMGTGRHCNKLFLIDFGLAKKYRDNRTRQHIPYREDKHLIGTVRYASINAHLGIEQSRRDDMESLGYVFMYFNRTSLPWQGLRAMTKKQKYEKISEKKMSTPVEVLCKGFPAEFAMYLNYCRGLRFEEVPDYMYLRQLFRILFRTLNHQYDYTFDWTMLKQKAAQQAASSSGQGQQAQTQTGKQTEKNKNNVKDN
The target in assay [6] is CAMK1D (Homo sapiens, UniProt Q8IU85).
CAMK1D, sequence (Q8IU85 whole entry): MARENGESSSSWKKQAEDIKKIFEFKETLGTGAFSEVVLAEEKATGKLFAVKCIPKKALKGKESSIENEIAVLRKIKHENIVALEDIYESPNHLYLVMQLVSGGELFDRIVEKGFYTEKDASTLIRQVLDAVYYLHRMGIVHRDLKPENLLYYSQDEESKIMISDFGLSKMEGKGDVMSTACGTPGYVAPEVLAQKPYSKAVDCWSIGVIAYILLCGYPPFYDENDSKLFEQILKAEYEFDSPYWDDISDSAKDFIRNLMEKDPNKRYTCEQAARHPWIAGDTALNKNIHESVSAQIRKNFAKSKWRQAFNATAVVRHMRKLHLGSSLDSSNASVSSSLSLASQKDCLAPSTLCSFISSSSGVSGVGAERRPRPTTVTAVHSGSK
The target in assay [7] is EGFR(G719C) (Homo sapiens, UniProt P00533, G719C).
Assay [8] addresses T1, ABL1(T315I)-nonphosphorylated (Homo sapiens, UniProt P00519, T315I).
T1 construct: nonphosphorylated

The target in assay [9] is DAPK1 (Homo sapiens, UniProt P53355).
DAPK1, sequence (P53355 whole entry): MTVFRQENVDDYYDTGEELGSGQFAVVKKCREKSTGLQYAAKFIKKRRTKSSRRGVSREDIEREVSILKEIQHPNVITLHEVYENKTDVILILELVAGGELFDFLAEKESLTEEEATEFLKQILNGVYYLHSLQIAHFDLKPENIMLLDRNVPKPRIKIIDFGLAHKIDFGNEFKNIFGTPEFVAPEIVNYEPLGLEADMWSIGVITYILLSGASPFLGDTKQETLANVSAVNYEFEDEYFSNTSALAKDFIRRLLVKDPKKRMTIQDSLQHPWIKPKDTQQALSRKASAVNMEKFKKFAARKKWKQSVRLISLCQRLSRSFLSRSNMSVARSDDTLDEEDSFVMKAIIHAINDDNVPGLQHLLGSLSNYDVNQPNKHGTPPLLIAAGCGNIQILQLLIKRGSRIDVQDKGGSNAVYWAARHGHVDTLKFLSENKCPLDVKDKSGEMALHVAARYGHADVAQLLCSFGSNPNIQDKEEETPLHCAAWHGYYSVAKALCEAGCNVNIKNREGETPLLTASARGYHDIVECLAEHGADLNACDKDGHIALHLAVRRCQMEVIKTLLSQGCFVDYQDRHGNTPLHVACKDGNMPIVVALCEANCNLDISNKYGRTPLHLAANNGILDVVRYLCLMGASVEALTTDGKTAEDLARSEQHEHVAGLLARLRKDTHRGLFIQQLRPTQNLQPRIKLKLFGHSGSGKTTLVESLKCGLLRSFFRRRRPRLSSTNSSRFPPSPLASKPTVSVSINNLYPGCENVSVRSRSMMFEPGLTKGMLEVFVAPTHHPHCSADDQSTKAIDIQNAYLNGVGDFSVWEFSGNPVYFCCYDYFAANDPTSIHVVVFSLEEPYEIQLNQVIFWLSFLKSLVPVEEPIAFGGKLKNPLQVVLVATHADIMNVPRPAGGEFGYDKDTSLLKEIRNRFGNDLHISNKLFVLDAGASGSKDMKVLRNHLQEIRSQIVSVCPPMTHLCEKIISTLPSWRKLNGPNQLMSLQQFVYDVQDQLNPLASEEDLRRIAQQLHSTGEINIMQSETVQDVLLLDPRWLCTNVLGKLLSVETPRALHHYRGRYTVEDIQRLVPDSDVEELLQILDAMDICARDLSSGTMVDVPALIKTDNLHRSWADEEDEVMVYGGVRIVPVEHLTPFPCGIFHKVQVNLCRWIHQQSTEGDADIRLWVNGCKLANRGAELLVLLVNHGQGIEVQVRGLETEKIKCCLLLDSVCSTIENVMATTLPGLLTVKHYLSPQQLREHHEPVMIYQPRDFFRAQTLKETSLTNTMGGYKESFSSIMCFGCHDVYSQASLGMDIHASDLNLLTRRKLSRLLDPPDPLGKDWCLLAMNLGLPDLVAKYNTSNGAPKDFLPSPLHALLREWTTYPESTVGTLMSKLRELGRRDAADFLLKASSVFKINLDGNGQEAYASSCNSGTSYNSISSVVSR
Assay [10] addresses MST1R (Homo sapiens, UniProt Q04912).
Assay [11] addresses T2, AMPK-alpha2 (Homo sapiens, UniProt P54646).
T2 construct: gene PRKAA2

Assay [12] addresses CDK3 (Homo sapiens, UniProt Q00526).
In assay [13] the target is T3, MEK5 (Homo sapiens, UniProt Q13163).
T3 construct: gene MAP2K5
T3 sequence (Q13163 whole entry): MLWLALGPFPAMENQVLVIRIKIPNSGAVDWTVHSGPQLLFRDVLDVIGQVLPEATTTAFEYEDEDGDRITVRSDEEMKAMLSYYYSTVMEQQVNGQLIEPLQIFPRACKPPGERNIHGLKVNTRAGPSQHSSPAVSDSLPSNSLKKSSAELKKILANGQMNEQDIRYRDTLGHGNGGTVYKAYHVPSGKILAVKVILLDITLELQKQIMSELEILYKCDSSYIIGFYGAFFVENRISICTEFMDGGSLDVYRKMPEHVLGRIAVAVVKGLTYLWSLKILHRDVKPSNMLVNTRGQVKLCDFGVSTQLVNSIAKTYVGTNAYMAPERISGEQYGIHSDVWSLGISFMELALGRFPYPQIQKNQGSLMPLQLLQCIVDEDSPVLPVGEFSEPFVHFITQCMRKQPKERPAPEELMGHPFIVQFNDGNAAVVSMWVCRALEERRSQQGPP

The target of assay [14] is PRKCD (Homo sapiens, UniProt Q05655).
The target in assay [15] is CLK1 (Homo sapiens, UniProt P49759).
Assay [16] addresses PIK3C2G (Homo sapiens, UniProt O75747).
Assay [17] has as its target CAMK4 (Homo sapiens, UniProt Q16566).
Assay [18] deals with EPHB6 (Homo sapiens, UniProt O15197).
EPHB6, sequence (O15197 whole entry): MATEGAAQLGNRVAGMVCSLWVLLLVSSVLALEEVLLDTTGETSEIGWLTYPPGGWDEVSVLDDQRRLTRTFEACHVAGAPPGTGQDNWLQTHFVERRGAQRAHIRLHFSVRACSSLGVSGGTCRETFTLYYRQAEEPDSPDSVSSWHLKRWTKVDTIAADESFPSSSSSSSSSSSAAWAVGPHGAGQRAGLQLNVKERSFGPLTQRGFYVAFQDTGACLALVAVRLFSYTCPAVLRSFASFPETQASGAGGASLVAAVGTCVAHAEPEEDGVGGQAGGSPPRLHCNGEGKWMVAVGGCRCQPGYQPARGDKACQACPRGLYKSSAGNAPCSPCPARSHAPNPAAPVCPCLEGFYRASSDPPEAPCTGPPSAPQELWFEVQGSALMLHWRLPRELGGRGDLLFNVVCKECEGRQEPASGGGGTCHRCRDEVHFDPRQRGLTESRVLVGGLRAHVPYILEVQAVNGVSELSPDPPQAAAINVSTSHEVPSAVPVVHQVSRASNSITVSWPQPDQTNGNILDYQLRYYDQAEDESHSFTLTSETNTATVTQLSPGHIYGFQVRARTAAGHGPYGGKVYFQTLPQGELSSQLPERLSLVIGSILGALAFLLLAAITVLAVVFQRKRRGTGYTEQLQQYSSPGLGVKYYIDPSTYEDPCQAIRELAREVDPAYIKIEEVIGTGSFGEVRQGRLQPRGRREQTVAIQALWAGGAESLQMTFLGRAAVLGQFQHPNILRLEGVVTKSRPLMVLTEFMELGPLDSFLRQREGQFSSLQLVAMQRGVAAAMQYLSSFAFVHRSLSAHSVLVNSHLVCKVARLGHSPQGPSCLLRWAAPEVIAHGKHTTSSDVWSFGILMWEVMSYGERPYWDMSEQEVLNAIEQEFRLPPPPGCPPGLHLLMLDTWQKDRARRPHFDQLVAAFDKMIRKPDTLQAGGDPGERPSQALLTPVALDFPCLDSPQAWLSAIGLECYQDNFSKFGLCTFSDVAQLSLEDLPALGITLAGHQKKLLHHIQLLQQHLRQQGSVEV
Assay [19] concerns the target T4, ZAK (Homo sapiens, UniProt Q9NYL2).
T4 construct: gene MAP3K20

The target of assay [20] is T5, ABL1(E255K)-phosphorylated (Homo sapiens, UniProt P00519, E255K).
T5 construct: phosphorylated

For assay [21], the target named is RIPK2 (Homo sapiens, UniProt O43353).
Assay [22] concerns the target ACVR1 (Homo sapiens, UniProt Q04771).
The target in assay [23] is IRAK4 (Homo sapiens, UniProt Q9NWZ3).
Assay [24] deals with EGFR (Homo sapiens, UniProt P00533).

MST1R, sequence (Q04912 whole entry): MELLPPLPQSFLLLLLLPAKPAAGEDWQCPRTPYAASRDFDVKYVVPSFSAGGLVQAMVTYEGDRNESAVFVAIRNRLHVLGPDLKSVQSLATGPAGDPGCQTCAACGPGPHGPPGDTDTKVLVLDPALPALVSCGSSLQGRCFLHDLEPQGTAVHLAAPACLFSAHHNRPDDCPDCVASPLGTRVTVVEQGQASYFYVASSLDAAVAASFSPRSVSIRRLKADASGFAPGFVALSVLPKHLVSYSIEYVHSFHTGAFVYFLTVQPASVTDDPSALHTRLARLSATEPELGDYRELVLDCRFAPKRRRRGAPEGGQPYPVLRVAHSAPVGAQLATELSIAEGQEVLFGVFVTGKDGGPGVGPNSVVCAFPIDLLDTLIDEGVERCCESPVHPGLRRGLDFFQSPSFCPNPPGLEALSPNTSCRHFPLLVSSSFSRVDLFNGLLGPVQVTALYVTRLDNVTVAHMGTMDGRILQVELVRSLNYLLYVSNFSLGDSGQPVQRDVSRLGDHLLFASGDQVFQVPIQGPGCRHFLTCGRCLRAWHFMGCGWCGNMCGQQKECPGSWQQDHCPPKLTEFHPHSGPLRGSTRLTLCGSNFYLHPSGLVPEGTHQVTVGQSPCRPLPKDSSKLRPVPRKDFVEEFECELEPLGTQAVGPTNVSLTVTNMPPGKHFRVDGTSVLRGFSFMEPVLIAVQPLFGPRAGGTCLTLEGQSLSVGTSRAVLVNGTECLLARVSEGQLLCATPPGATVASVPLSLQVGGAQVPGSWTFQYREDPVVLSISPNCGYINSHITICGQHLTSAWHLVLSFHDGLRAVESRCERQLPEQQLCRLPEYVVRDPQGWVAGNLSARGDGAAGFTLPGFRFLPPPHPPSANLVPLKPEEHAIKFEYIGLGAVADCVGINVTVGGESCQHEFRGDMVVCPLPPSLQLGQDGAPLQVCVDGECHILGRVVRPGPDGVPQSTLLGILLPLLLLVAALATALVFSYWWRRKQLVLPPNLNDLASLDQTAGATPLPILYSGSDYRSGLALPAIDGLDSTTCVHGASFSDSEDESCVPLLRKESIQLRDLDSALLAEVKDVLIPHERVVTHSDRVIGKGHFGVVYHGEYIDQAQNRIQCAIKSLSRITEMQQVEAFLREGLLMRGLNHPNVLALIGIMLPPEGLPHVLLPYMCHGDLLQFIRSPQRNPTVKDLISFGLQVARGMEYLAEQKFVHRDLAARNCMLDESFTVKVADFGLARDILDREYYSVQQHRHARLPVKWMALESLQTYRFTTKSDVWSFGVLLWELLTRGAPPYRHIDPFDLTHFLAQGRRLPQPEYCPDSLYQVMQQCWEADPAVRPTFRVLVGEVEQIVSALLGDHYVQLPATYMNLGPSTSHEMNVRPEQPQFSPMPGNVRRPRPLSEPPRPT

Regarding `Cc1ccc(NC(=O)c2cccc(C(F)(F)F)c2)cc1Nc1cc(-c2cccnc2)nc2[nH]ccc12` [HZX-02-059], the remaining binding at 1 µM in assay [1] came to 61%; in [2], 100%; in assay [3], 92%; in [4] it was 92%; in assay [5], 92%; in assay [6], 100%. The remaining binding at 1 µM was 96% in assay [7]; 77% in [8]; 93% in [9]; 89% in assay [10]; 90% in assay [11]; 100% in assay [12]. Besides, the remaining binding at 1 µM stood at 83% in assay [13]; 96% in [14]; 96% in assay [15]; 86% in assay [16]; 83% in [17]; 42% in assay [18]. The remaining binding at 1 µM in assay [19] was 17%; in assay [20] it was 77%; in assay [21] it was 100%; in [22], 77%; in assay [23], 100%; in assay [24], 67%.

These data come from PMC8799717, “Pharmacological targeting PIKfyve and tubulin as an effective treatment strategy for double-hit lymphoma” (Cell Death Discovery, 2022).
